From PubChem BioAssay (NCI)
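Growth conditions: 96-well plates. Treatment: test compound, 48 hours, 5 concentrations. Analysis: linear interpolation between bracketing concentrations; unreached endpoints set to highest concentration. At the TGI there is no net growth.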

Columns and labels:
Assay in all cases: DTP human tumour cell line panel, 48 h
SR leukemia = system: SR leukemia
HOP-18 NSCLC = system: HOP-18 NSCLC
SK-OV-3 ovarian = system: SK-OV-3 ovarian
UO-31 renal = system: UO-31 renal
DLD-1 colon = system: DLD-1 colon
SK-MEL-5 melanoma = system: SK-MEL-5 melanoma
HCT-15 colon = system: HCT-15 colon
A549 NSCLC = system: A549 NSCLC
NCI-H460 lung = system: NCI-H460 lung
UACC-257 melanoma = system: UACC-257 melanoma
SNB-78 CNS = system: SNB-78 CNS
SF-539 CNS = system: SF-539 CNS
OVCAR-8 ovarian = system: OVCAR-8 ovarian
HOP-92 NSCLC = system: HOP-92 NSCLC
A498 renal = system: A498 renal
HCC-2998 colon = system: HCC-2998 colon
IGROV1 ovarian = system: IGROV1 ovarian
SNB-19 CNS = system: SNB-19 CNS
NCI-H226 lung = system: NCI-H226 lung
UACC-62 melanoma = system: UACC-62 melanoma
HCT-116 colon = system: HCT-116 colon
K-562 leukemia = system: K-562 leukemia
EKVX NSCLC = system: EKVX NSCLC
TK-10 renal = system: TK-10 renal
XF 498 CNS = system: XF 498 CNS
SK-MEL-2 melanoma = system: SK-MEL-2 melanoma
RPMI-8226 leukemia = system: RPMI-8226 leukemia
786-0 renal = system: 786-0 renal
HL-60(TB) leukemia = system: HL-60(TB) leukemia
HT29 colon = system: HT29 colon
MALME-3M melanoma = system: MALME-3M melanoma
LOX IMVI melanoma = system: LOX IMVI melanoma
NCI-H23 lung = system: NCI-H23 lung
DMS 273 small cell lung = system: DMS 273 small cell lung
OVCAR-3 ovarian = system: OVCAR-3 ovarian
KM12 colon = system: KM12 colon
MOLT-4 leukemia = system: MOLT-4 leukemia
SF-295 CNS = system: SF-295 CNS
HOP-62 NSCLC = system: HOP-62 NSCLC
M19-MEL melanoma = system: M19-MEL melanoma
LXFL 529 NSCLC = system: LXFL 529 NSCLC
KM20L2 colon = system: KM20L2 colon
M14 melanoma = system: M14 melanoma
CCRF-CEM leukemia = system: CCRF-CEM leukemia
SW-620 colon = system: SW-620 colon
U251 CNS = system: U251 CNS
ACHN renal = system: ACHN renal
COLO 205 colon = system: COLO 205 colon
SK-MEL-28 melanoma = system: SK-MEL-28 melanoma
DMS 114 small cell lung = system: DMS 114 small cell lung
OVCAR-5 ovarian = system: OVCAR-5 ovarian
OVCAR-4 ovarian = system: OVCAR-4 ovarian
SN12C renal = system: SN12C renal
SNB-75 CNS = system: SNB-75 CNS
NCI-H522 lung = system: NCI-H522 lung
CAKI-1 renal = system: CAKI-1 renal
RXF-631 renal = system: RXF-631 renal
SF-268 CNS = system: SF-268 CNS

Which results are given for CCOC(=O)CC1COc2ccc3c(c21)OCO3 (stereo not drawn)?
TGI (SR leukemia): > 100 µM; TGI (HOP-18 NSCLC): > 100 µM; TGI (SK-OV-3 ovarian): > 100 µM; TGI (UO-31 renal): > 100 µM; TGI (DLD-1 colon): > 100 µM; TGI (SK-MEL-5 melanoma): > 100 µM; TGI (HCT-15 colon): > 100 µM; TGI (A549 NSCLC): > 100 µM; TGI (NCI-H460 lung): > 100 µM; TGI (UACC-257 melanoma): > 100 µM; TGI (SNB-78 CNS): > 100 µM; TGI (SF-539 CNS): > 100 µM; TGI (OVCAR-8 ovarian): > 100 µM; TGI (HOP-92 NSCLC): > 100 µM; TGI (A498 renal): > 100 µM; TGI (HCC-2998 colon): > 100 µM; TGI (IGROV1 ovarian): > 100 µM; TGI (SNB-19 CNS): > 100 µM; TGI (NCI-H226 lung): > 100 µM; TGI (UACC-62 melanoma): > 100 µM; TGI (HCT-116 colon): > 100 µM; TGI (K-562 leukemia): > 100 µM; TGI (EKVX NSCLC): > 100 µM; TGI (TK-10 renal): > 100 µM; TGI (XF 498 CNS): > 100 µM; TGI (SK-MEL-2 melanoma): > 100 µM; TGI (RPMI-8226 leukemia): > 100 µM; TGI (786-0 renal): > 100 µM; TGI (HL-60(TB) leukemia): > 100 µM; TGI (HT29 colon): > 100 µM; TGI (MALME-3M melanoma): > 100 µM; TGI (LOX IMVI melanoma): > 100 µM; TGI (NCI-H23 lung): > 100 µM; TGI (DMS 273 small cell lung): > 100 µM; TGI (OVCAR-3 ovarian): > 100 µM; TGI (KM12 colon): > 100 µM; TGI (MOLT-4 leukemia): > 100 µM; TGI (SF-295 CNS): > 100 µM; TGI (HOP-62 NSCLC): > 100 µM; TGI (M19-MEL melanoma): > 100 µM; TGI (LXFL 529 NSCLC): > 100 µM; TGI (KM20L2 colon): > 100 µM; TGI (M14 melanoma): > 100 µM; TGI (CCRF-CEM leukemia): > 100 µM; TGI (SW-620 colon): > 100 µM; TGI (U251 CNS): > 100 µM; TGI (ACHN renal): > 100 µM; TGI (COLO 205 colon): > 100 µM; TGI (SK-MEL-28 melanoma): > 100 µM; TGI (DMS 114 small cell lung): > 100 µM; TGI (OVCAR-5 ovarian): > 100 µM; TGI (OVCAR-4 ovarian): > 100 µM; TGI (SN12C renal): > 100 µM; TGI (SNB-75 CNS): > 100 µM

Which results are given for CC(C)C(=O)N1Cc2cc(Cl)cc(Cl)c2OC(=O)c2ccccc21?
TGI (HOP-18 NSCLC): 93.1 µM; TGI (SK-OV-3 ovarian): 84.5 µM; TGI (UO-31 renal): > 100 µM; TGI (DLD-1 colon): > 100 µM; TGI (SK-MEL-5 melanoma): 38.3 µM; TGI (HCT-15 colon): 85.9 µM; TGI (A549 NSCLC): > 100 µM; TGI (NCI-H460 lung): > 100 µM; TGI (UACC-257 melanoma): 32.8 µM; TGI (SNB-78 CNS): > 100 µM; TGI (SF-539 CNS): 35.4 µM; TGI (OVCAR-8 ovarian): > 100 µM; TGI (HOP-92 NSCLC): 62.7 µM; TGI (A498 renal): 97.9 µM; TGI (HCC-2998 colon): 60.3 µM; TGI (IGROV1 ovarian): 81 µM; TGI (SNB-19 CNS): > 100 µM; TGI (NCI-H226 lung): 58.7 µM; TGI (UACC-62 melanoma): 42.2 µM; TGI (HCT-116 colon): > 100 µM; TGI (K-562 leukemia): > 100 µM; TGI (EKVX NSCLC): 67.2 µM; TGI (TK-10 renal): > 100 µM; TGI (NCI-H522 lung): 40.9 µM; TGI (SK-MEL-2 melanoma): 50 µM; TGI (RPMI-8226 leukemia): 96.8 µM; TGI (786-0 renal): > 100 µM; TGI (HL-60(TB) leukemia): 57.6 µM; TGI (HT29 colon): > 100 µM; TGI (CAKI-1 renal): 64 µM; TGI (RXF-631 renal): > 100 µM; TGI (MALME-3M melanoma): 49.3 µM; TGI (LOX IMVI melanoma): 59 µM; TGI (NCI-H23 lung): > 100 µM; TGI (DMS 273 small cell lung): > 100 µM; TGI (OVCAR-3 ovarian): 60.8 µM; TGI (KM12 colon): > 100 µM; TGI (MOLT-4 leukemia): 62 µM; TGI (SF-295 CNS): > 100 µM; TGI (HOP-62 NSCLC): > 100 µM; TGI (LXFL 529 NSCLC): 34.3 µM; TGI (KM20L2 colon): 57.8 µM; TGI (M14 melanoma): 61.7 µM; TGI (CCRF-CEM leukemia): 94.7 µM; TGI (SW-620 colon): 94.9 µM; TGI (ACHN renal): 72.9 µM; TGI (COLO 205 colon): > 100 µM; TGI (SK-MEL-28 melanoma): > 100 µM; TGI (DMS 114 small cell lung): 74 µM; TGI (OVCAR-5 ovarian): 90 µM; TGI (SF-268 CNS): 41.5 µM; TGI (OVCAR-4 ovarian): 74 µM; TGI (SN12C renal): > 100 µM; TGI (SNB-75 CNS): 96.5 µM
